IC50 data for 20 molecules are collected here from US10173991B2, “Sulfone amide linked benzothiazole inhibitors of endothelial lipase” (BRISTOL-MYERS SQUIBB COMPANY, priority 2014, dated 2019).

pIC50: −log10 of the molar value.

Endothelial lipase (EL), sequence (Q9Y5X9 21-500): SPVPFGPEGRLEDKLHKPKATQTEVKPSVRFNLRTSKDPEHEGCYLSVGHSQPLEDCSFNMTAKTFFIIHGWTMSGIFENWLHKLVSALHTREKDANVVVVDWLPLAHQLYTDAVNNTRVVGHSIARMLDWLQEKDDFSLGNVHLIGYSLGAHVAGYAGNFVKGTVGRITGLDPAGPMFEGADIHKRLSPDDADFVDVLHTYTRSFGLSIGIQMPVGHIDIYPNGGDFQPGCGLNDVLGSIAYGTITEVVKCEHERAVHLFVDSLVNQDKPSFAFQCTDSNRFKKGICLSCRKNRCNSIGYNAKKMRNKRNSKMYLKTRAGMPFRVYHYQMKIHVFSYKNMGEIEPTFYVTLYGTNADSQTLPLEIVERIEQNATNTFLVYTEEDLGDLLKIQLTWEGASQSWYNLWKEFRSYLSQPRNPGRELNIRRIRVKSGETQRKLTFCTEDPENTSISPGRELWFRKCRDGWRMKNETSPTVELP

This assay deals with Endothelial lipase (EL) (Homo sapiens (Human), UniProt Q9Y5X9). Nature of the assay: Endothelial lipase (EL) enzymatic assay with fluorescent substrate A10070 in DMPG vesicles. The format is biochemical. In outline:
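EL from conditioned medium of HT-1080 cells engineered to overexpress endogenous EL; HL partially purified from conditioned medium of HL-overexpressing COS cells. Enzyme preincubated with compound 30 min at 37° C in 50 mM HEPES pH 8.0, 50 mM NaCl, 1 mM CaCl2; DMPG vesicles carrying FRET substrate (0.11 mole fraction) then added.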
As for `COCCS(=O)(=O)C(C(=O)NCC(=O)NC1CC1)c1nc2ccc(-c3ccc(NC(=O)OC)cc3C)cc2s1` (centres unmarked) [Example 30, methyl N-{4-[2-({[(cyclopropy-lcarbamoyl)methyl]carbamoyl}(2-methoxyethane-sulfonyl)methyl)-1,3-benzothiazol-6-yl]-3-methylphenyl} carbamate], the pIC50 (as a rule, the negative decadic logarithm of the IC50, by convention in mol/L) is 7.68.
Take `COCCS(=O)(=O)C(C(=O)NCC(=O)NC1CC1)c1nc2ccc(-c3cccc(Cl)n3)cc2s1` (centres unmarked) [Example 312, 2-[6-(6-chloropyridin-2-yl)-1,3-benzothiazol-2-yl]-N-[(cyclopropyl-carbamoyl)methyl]-2-(2-methoxyethane-sulfonyl)acetamide]: the negative-log IC50 (pIC50) is 6.73.
Take `CN(C)S(=O)(=O)C(C(=O)NCC(=O)NC1CC1)c1nc2c(F)cc(-c3ccc(NC(=O)OCc4ccccc4)cc3)cc2s1` (centres unmarked) [Example 495, benzyl N-{4-[2-({[(cyclopropyl-carbamoyl)methyl]carbamoyl} (dimethyl-sulfamoyl)methyl)-4-fluoro-1,3-benzothiazol-6-yl]phenyl}carbamate]: the pIC50 is 8.70.
In the case of `O=C(CNC(=O)C(c1nc2cc(-c3cncnc3)ccc2s1)S(=O)(=O)c1ccccc1)NC1CC1` (centres unmarked) [Example 435, 2-(benzenesulfonyl)-N-[(cyclopropyl-carbamoyl)methyl]-2-[5-(pyrimidin-5-yl)-1,3-benzothiazol-2-yl]acetamide], the pIC50 was 7.92.
`O=C(CNC(=O)C(c1nc2cc(F)c(-c3cnc(-n4cccn4)nc3)cc2s1)S(=O)(=O)CCC(F)(F)F)NC1CC1` (centres unmarked) [Example 584, N-[(cyclopropyl-carbamoyl)methyl]-2-{5-fluoro-6-[2-(1H-pyrazol-1-yl)pyrimidin-5-yl]-1,3-benzothiazol-2-yl}-2-(3,3,3-trifluoropropane-sulfonyl)acetamide] had a negative logarithm of the IC50 (pIC50) of 7.19.
The same measure for `COC(=O)Nc1ccc(-c2cc(F)c3nc(C(C(=O)NCC(=O)NC4CC4)S(=O)(=O)N(C)C)sc3c2)cc1` (centres unmarked) [Example 496, methyl N-{4-[2-({[(cyclopropyl-carbamoyl)methyl]carbamoyl} (dimethyl-sulfamoyl)methyl)-4-fluoro-1,3-benzothiazol-6-yl]phenyl} carbamate]: 8.70.
The same measure for `CN(C)S(=O)(=O)C(C(=O)NCC(=O)NC1CC1)c1nc2cc(F)c(-c3ccc(-c4ccccn4)cc3)cc2s1` (centres unmarked) [Example 508, N-[(cyclopropyl-carbamoyl)methyl]-2-(dimethyl-sulfamoyl)-2-{5-fluoro-6-[4-(pyridin-2-yl)phenyl]-1,3-benzothiazol-2-yl}acetamide]: 7.82; for `CS(=O)(=O)C(C(=O)NCC(=O)NC1CC1)c1nc2cc(F)c(-c3cccnc3C(F)(F)F)cc2s1` (centres unmarked) [Example 326, N-[(cyclopropyl-carbamoyl)methyl]-2-{5-fluoro-6-[2-(trifluoromethyl)pyridin-3-yl]-1,3-benzothiazol-2-yl}-2-methanesulfonyl-acetamide]: 7.19; for `COCCS(=O)(=O)C(C(=O)NCC(=O)NC1CC1)c1nc2ccc(-c3ccncc3Cl)cc2s1` (centres unmarked) [Example 288, 2-[6-(3-chloropyridin-4-yl)-1,3-benzothiazol-2-yl]-N-[(cyclopropyl-carbamoyl)methyl]-2-(2-methoxyethane-sulfonyl)acetamide]: 7.82.
For the molecule `COCCS(=O)(=O)C(C(=O)NCC(=O)NC1CC1)c1nc2cc(F)c(-c3cnc(OC)c(N)c3)cc2s1` (centres unmarked) [Example 140], the pIC50 is 7.92.
Turning to `COCCS(=O)(=O)C(C(=O)NCC(=O)NC1CC1)c1nc2ccc(-c3cnc(C(F)(F)F)nc3)cc2s1` (centres unmarked) [Example 301, N-[(cyclopropyl-carbamoyl)methyl]-2-(2-methoxyethane-sulfonyl)-2-{6-[2-(trifluoromethyl)pyrimidin-5-yl]-1,3-benzothiazol-2-yl}acetamide], the pIC50 is 6.81.
In turn, `N#CCCNC(=O)c1ccc(-c2cc3sc(C(C(=O)NCC(=O)NC4CC4)S(=O)(=O)CCC(F)(F)F)nc3cc2F)cc1` (centres unmarked) [Example 44, N-(2-cyanoethyl)-4-[2-({[(cyclopropyl-carbamoyl)methyl]carbamoyl}(3,3,3-trifluoropropane-sulfonyl)methyl)-5-fluoro-1,3-benzothiazol-6-yl] benzamide] showed a pIC50 of 8.52.
As for `CC(C)OCCNC(=O)CNC(=O)C(c1nc2cc(F)cc(-c3cnc(C4CC4)nc3)c2s1)S(=O)(=O)c1ccc(F)cc1` (centres unmarked) [Example 466, 2-[7-(2-cyclopropyl-pyrimidin-5-yl)-5-fluoro-1,3-benzothiazol-2-yl]-2-(4-fluorobenzene-sulfonyl)-N-({[2-(propan-2-yloxy)ethyl]carbamoyl}methyl)acetamide], the pIC50 was 6.80.
The same measure for `CS(=O)(=O)C(C(=O)NCC(=O)NC1CC1)c1nc2cc(F)c(-c3ccc(C#N)nc3)cc2s1` (centres unmarked) [Example 199, 2-[6-(6-cyanopyridin-3-yl)-5-fluoro-1,3-benzothiazol-2-yl]-N-[(cyclopropyl-carbamoyl)methyl]-2-methanesulfonyl-acetamide]: 7.62; for `CC(=O)Nc1cccc(-c2ccc3nc(C(C(=O)NCC(=O)NC4CC4)S(C)(=O)=O)sc3c2)c1` (centres unmarked) [Example 111, N-[(cyclopropyl-carbamoyl)methyl]-2-[6-(3-acetamidophenyl)-1,3-benzothiazol-2-yl]-2-methanesulfonyl-acetamide]: 7.64.
In the case of `O=C(CNC(=O)C(c1nc2cc(F)c(-c3ccc(NC(=O)OCc4ccccc4)cc3)cc2s1)S(=O)(=O)CC1CCCCC1)NC1CC1` (centres unmarked) [Example 54, benzyl N-(4-{2-[cyclohexyl-methanesulfonyl ({[(cyclopropyl-carbamoyl)methyl]carbamoyl})methyl]-5-fluoro-1,3-benzothiazol-6-yl}phenyl) carbamate], the negative-log IC50 (pIC50) was 9.00.
For the molecule `COCCNC(=O)c1cccc(-c2cc3sc(C(C(=O)NCC(=O)NC4CC4)S(=O)(=O)C(C)C)nc3cc2C)c1` (centres unmarked) [Example 210, 3-[2-({[(cyclopropyl-carbamoyl)methyl]carbamoyl} (propane-2-sulfonyl)methyl)-5-methyl-1,3-benzothiazol-6-yl]-N-(2-methoxyethyl) benzamide], the negative logarithm of the IC50 (pIC50) was 7.92.
`COCCS(=O)(=O)C(C(=O)NCC(=O)NC1CC1)c1nc2cc(F)c(-c3ccc(-c4ccno4)cc3)cc2s1` (centres unmarked) [Example 145, N-[(cyclopropyl-carbamoyl)methyl]-2-{5-fluoro-6-[4-(1,2-oxazol-5-yl)phenyl]-1,3-benzothiazol-2-yl}-2-(2-methoxyethane-sulfonyl) acetamide] had a negative-log IC50 (pIC50) of 8.52.
`COCCS(=O)(=O)C(C(=O)NCC(=O)NC1CC1)c1nc2ccc(-c3cccnc3F)cc2s1` (centres unmarked) [Example 318, N-[(cyclopropyl-carbamoyl)methyl]-2-[6-(2-fluoropyridin-3-yl)-1,3-benzothiazol-2-yl]-2-(2-methoxyethane-sulfonyl)acetamide]: the pIC50 was 8.15.
With `COC(=O)N(C)c1cccc(-c2ccc3nc(C(C(=O)NCC(=O)NC4CC4)S(=O)(=O)CCC(F)(F)F)sc3c2)c1` (centres unmarked) [Example 546, methyl N-{3-[2-({[(cyclopropyl-carbamoyl)methyl]carbamoyl}(3,3,3-trifluoropropane-sulfonyl)methyl)-1,3-benzothiazol-6-yl]phenyl}-N-methylcarbamate], the pIC50 was 8.15.
